How the values were obtained:
[1] = system: normal NK cells expanded with K562-aAPC; experiment: percent inhibition of viability; higher = more inhibition; conditions: 72 h, IL-2 2.5 ng/mL
Experimental: (§1)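 Drug sensitivity and resistance testing on K562-aAPC-expanded normal NK cells: 5 concentrations (10-fold steps over a 10,000-fold range), 72 h at 37 °C, viability by CellTiter-Glo normalised to DMSO and benzethonium chloride controls; DSS from the fitted curve.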

[2] = system: normal primary NK cells, pool 1 (3 donors) (IL-2 2.5 ng/mL); experiment: drug sensitivity score (DSS) (DSS units); higher = more sensitive; extreme values may be limits of the assay; conditions: 72 h
[3] = system: NK-92 (IL-2 2.5 ng/mL); experiment: as above; conditions: 72 h
[4] = system: IMC-1 (IL-2 20 ng/mL); experiment: as above; conditions: 72 h
[5] = system: DERL-7 (IL-2 2.5 ng/mL); experiment: as above; conditions: 72 h
[6] = system: SNK-6 (IL-2 2.5 ng/mL); experiment: as above; conditions: 72 h
[7] = system: normal primary NK cells, pool 3 (3 donors) (IL-2 2.5 ng/mL); experiment: as above; conditions: 72 h
[8] = system: KAI3 (IL-2 2.5 ng/mL); experiment: as above; conditions: 72 h
[9] = system: NK-YS (IL-2 2.5 ng/mL); experiment: as above; conditions: 72 h
[10] = system: normal primary NK cells, pool 1 (3 donors), resting (IL-2 0 ng/mL); experiment: as above; conditions: 72 h
[11] = system: NKL (IL-2 2.5 ng/mL); experiment: as above; conditions: 72 h
[12] = system: YT (IL-2 2.5 ng/mL); experiment: as above; conditions: 72 h
[13] = system: KHYG-1 (IL-2 2.5 ng/mL); experiment: as above; conditions: 72 h
[14] = system: normal primary NK cells, pool 2 (3 donors) (IL-2 2.5 ng/mL); experiment: as above; conditions: 72 h
[15] = system: normal primary NK cells, pool 1 (3 donors) (IL-2 2.5 ng/mL); experiment: percent inhibition of viability; higher = more inhibition; conditions: 72 h
[16] = system: NK-92 (IL-2 2.5 ng/mL); experiment: as above; conditions: 72 h
[17] = system: IMC-1 (IL-2 20 ng/mL); experiment: as above; conditions: 72 h
[18] = system: DERL-7 (IL-2 2.5 ng/mL); experiment: as above; conditions: 72 h
[19] = system: SNK-6 (IL-2 2.5 ng/mL); experiment: as above; conditions: 72 h
[20] = system: normal primary NK cells, pool 3 (3 donors) (IL-2 2.5 ng/mL); experiment: as above; conditions: 72 h
[21] = system: KAI3 (IL-2 2.5 ng/mL); experiment: as above; conditions: 72 h
[22] = system: NK-YS (IL-2 2.5 ng/mL); experiment: as above; conditions: 72 h
[23] = system: normal primary NK cells, pool 1 (3 donors), resting (IL-2 0 ng/mL); experiment: as above; conditions: 72 h
[24] = system: NKL (IL-2 2.5 ng/mL); experiment: as above; conditions: 72 h
[25] = system: YT (IL-2 2.5 ng/mL); experiment: as above; conditions: 72 h
[26] = system: KHYG-1 (IL-2 2.5 ng/mL); experiment: as above; conditions: 72 h
[27] = system: normal primary NK cells, pool 2 (3 donors) (IL-2 2.5 ng/mL); experiment: as above; conditions: 72 h
[28] = system: normal NK cells expanded with K562-aAPC; experiment: drug sensitivity score (DSS) (DSS units); higher = more sensitive; extreme values may be limits of the assay; conditions: 72 h; IL-2 2.5 ng/mL
Experimental: as §1

O=c1ncn2nc(Sc3ccc(F)cc3F)ccc2c1-c1c(Cl)cccc1Cl [VX 745] (max concentration tested 10000 nM)
percent inhibition of viability [%]
Conditions | 1 nM | 10 nM | 100 nM | 1000 nM | 10000 nM
[1] | -6.57 | -6.69 | -2.69 | 10.6 | 7.59
[15] | 1.17 | 8.88 | 0.28 | 10.7 | 23.3
[16] | -11.3 | -20.3 | -9.85 | 11 | 37.8
[17] | -8.82 | -3.76 | -6.12 | 4.33 | 24.7
[18] | 0.51 | 2.58 | 3.17 | -1.44 | 23.6
[19] | -5.31 | -15.8 | -5.14 | 3.14 | 26.2
[20] | -1.25 | -5.79 | 8.52 | -4.71 | 13.8
[21] | 3.09 | 5.9 | 15.3 | 25.4 | 59.7
[22] | -7.93 | -3.47 | 3.09 | 15.2 | 47.7
[23] | 13.8 | 12.2 | 18.8 | 9.48 | 37.9
[24] | -15.3 | -9.23 | 3.92 | 36 | 58.3
[25] | -3.02 | -3.06 | -2.2 | 8.23 | 29.8
[26] | -5.86 | -3.96 | -4.73 | 1.64 | 25
[27] | -5.75 | -3.08 | 5.63 | 1.25 | 19.1

Conditions | drug sensitivity score
[2] | 1.96
[3] | 3.48
[4] | 1.58
[5] | 0.75
[6] | 1.52
[7] | 0.07
[8] | 6.91
[9] | 4.52
[10] | 5.57
[11] | 7.53
[12] | 2.49
[13] | 1.17
[14] | 0.67
[28] | 0.12

C[C@]12C=CC(=O)C=C1CC[C@@H]1[C@@H]2C(=O)C[C@@]2(C)[C@H]1CC[C@]2(O)C(=O)CO [Prednisone] (max concentration tested 10000 nM)
percent inhibition of viability [%]
Conditions | 1 nM | 10 nM | 100 nM | 1000 nM | 10000 nM
[1] | -4.43 | -1.43 | -0.64 | 6.95 | 22
[15] | 4.02 | -6.96 | 4.16 | -9.18 | 9.23
[16] | -5.87 | -0.1 | 11.4 | -3.86 | 13.6
[17] | 0.28 | -0.37 | 3.06 | 4.05 | 15.4
[18] | -1.82 | -3.2 | -10.6 | 1.18 | -9
[19] | -5.48 | 15 | 3.96 | 19.8 | 15
[20] | -8.77 | -7.64 | -1.51 | -4.94 | 0.45
[21] | -0.89 | -0.49 | 8.97 | -3.86 | 21.4
[22] | 1.7 | 1.75 | 7.19 | 1.77 | 14.5
[23] | 11.6 | -5.07 | 6.95 | -4.28 | 11.9
[24] | -9.04 | 4.61 | -4.53 | 4.17 | 10.7
[25] | 1.47 | 5.85 | 29.5 | 18.9 | 32.6
[26] | -2.3 | -2.14 | 4.01 | 1.48 | 11.2
[27] | -7.97 | -0.38 | -4.79 | -8.7 | -1.49

Conditions | drug sensitivity score
[2] | 0
[3] | 0.06
[4] | 0.5
[5] | 0
[6] | 2.13
[7] | 0
[8] | 0.51
[9] | 0.36
[10] | 0.01
[11] | 0.06
[12] | 8.17
[13] | 0.05
[14] | 0
[28] | 1.61

CCOc1cc2ncc(C#N)c(Nc3ccc(F)c(Cl)c3)c2cc1NC(=O)/C=C/CN(C)C [Pelitinib] (max concentration tested 2500 nM)
percent inhibition of viability [%]
Conditions | 0.25 nM | 2.5 nM | 25 nM | 250 nM | 2500 nM
[1] | -1.17 | 1.75 | 2.79 | 36.6 | 99.5
[15] | 3.39 | -4.76 | 4.88 | 39 | 94.2
[16] | -0.1 | -2.5 | 13 | 13.8 | 98.3
[17] | -0.29 | 1.94 | 3.33 | -17.4 | 99.7
[18] | -4.83 | -5.06 | 2.43 | 41.3 | 99.9
[19] | 29.9 | 30.9 | 23.3 | 32.9 | 95.6
[20] | -8.11 | -2.18 | 2.55 | 19.3 | 94.4
[21] | -6.96 | -4.92 | 1.78 | 40.4 | 84.1
[22] | 0.78 | -5.84 | 0.53 | -1.43 | 73.7
[23] | 4.48 | -8.29 | 4.76 | 14.7 | 82.3
[24] | -12.4 | -7.42 | -0.44 | 15.2 | 92.2
[25] | 4.94 | 2.25 | 8.23 | 7.75 | 51.7
[26] | 1.04 | 0.45 | 7.11 | 25.7 | 101
[27] | -10.8 | 5.08 | 7.69 | 43 | 91.3

Conditions | drug sensitivity score
[2] | 9.9
[3] | 7.76
[4] | 4.58
[5] | 10.7
[6] | 16.3
[7] | 8.33
[8] | 9.6
[9] | 3.95
[10] | 6.98
[11] | 7.63
[12] | 4.06
[13] | 9.44
[14] | 10.1
[28] | 10.3
